According to US20080312435A1, “Imine Compound” (TAISHO PHARMACEUTICAL CO., LTD., priority 2004, published 2008):

Tests used:
human CB2 receptor = molecular target: T1, human CB2 receptor (Homo sapiens, UniProt P34972); experiment: Human CB2 receptor binding inhibition test ([3H]CP-55,940, CHO membrane fractions); conditions: [3H]CP-55,940, membrane fractions of CHO cells stably expressing human CB2 receptor, 25° C., 2 hours; read-out: CB2 IC50 (Inhibition of binding to human CB2 receptor)
T1 construct: expressed in transfected cells
T1 sequence (P34972 whole entry): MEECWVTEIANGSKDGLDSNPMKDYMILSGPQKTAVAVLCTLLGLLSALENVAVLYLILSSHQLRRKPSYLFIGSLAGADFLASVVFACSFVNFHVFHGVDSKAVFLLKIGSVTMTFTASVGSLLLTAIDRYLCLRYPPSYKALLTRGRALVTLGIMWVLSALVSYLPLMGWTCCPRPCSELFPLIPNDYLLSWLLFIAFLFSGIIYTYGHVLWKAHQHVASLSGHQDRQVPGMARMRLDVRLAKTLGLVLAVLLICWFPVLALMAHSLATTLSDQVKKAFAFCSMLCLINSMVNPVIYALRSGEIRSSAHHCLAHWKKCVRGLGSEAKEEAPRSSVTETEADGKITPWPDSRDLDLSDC
Description: Human CB2 Receptor Binding Inhibition Test
First, cDNA sequence (Munro et al., Nature, 1993, 365, 61-65) encoding a human CB2 receptor was inserted in the forward direction in an animal-cell expression vector, pTARGET Vector (manufactured by Promega) at a region downstream of a CMV promoter. Host cells CHO-DHFR(−) were transfected with the obtained expression vector with the aid of Lipofectamine (manufactured by Invitrogen) to obtain cells capable of stably expressing the CB2 receptor.
After the filtrate was washed with an assay buffer containing 0.1% bovine serum albumin, the radioactivity on the glass filter was measured by a liquid scintillation counter. Nonspecific binding was measured in the presence of 2.0 μM CP-55,940 (manufactured by Tocris). 50% inhibitory concentration (IC50 value) of the test compound for the specific binding was obtained.

Compound | IC50 (human CB2 receptor) [nM] | melting point [°C]
Cc1ccc(F)cc1C(=O)/N=c1\sc(C)c(C)n1CC1CC1 [compound 89] | 9.8 | 82 to 84
Cc1cc(Cl)ccc1C(=O)/N=c1\sc(C)c(C)n1CC1CC1 [compound 90] | 6.5 | 124 to 125
Cc1ccc(C(=O)/N=c2\sc(C)c(C)n2CC2CC2)c(Br)c1 [compound 91] | 7.9 | 90 to 92
Cc1s/c(=N\C(=O)c2cc(C(F)(F)F)ccc2F)n(CC2CC2)c1C [compound 92] | 3.9 | 122 to 123
Cc1s/c(=N\C(=O)c2cc(F)ccc2C(F)(F)F)n(CC2CC2)c1C [compound 93] | 17.6 | 131 to 133
Cc1s/c(=N\C(=O)c2c(F)cccc2C(F)(F)F)n(CC2CC2)c1C [compound 94] | 2.9 | 111 to 113
COc1ccc(F)cc1C(=O)/N=c1\sc(C)c(C)n1CC1CC1 [compound 96] | 7.7 | 107 to 109
COc1ccc(Cl)cc1C(=O)/N=c1\sc(C)c(C)n1CC1CC1 [compound 97] | 3.3 | 121 to 123
Cc1s/c(=N\C(=O)CC2CCCC2)n(CC2CC2)c1C [compound 100] | 7 | 108 to 109
COCCCn1c(C)c(C)s/c1=N\C(=O)c1cccc(C(F)(F)F)c1F [compound 105] | 1.7 | 104 to 106
CCc1s/c(=N\C(=O)c2cccc(C(F)(F)F)c2F)n(CC2CC2)c1C [compound 109] | 1.3 | 164 to 166
Cc1c(C(C)C)s/c(=N\C(=O)c2cccc(C(F)(F)F)c2F)n1CC1CC1 [compound 113] | 1.1 | 64 to 66
COCCn1c(C)c(C(C)C)s/c1=N\C(=O)c1cccc(C(F)(F)F)c1F [compound 114] | 1.6 | 132 to 134
Cc1c(C(C)(C)C)s/c(=N\C(=O)c2ccccc2C(F)(F)F)n1C [compound 117] | 5.6 | 74 to 76
Cc1c(C(C)(C)C)s/c(=N\C(=O)c2ccccc2Cl)n1C [compound 119] | 18.5 | 119 to 121
Cc1c(C(C)(C)C)s/c(=N\C(=O)c2ccccc2Br)n1C [compound 120] | 7.4 | 182 to 184
Cc1c(C(C)(C)C)s/c(=N\C(=O)c2ccccc2I)n1C [compound 122] | 8.9 | 83 to 85
Cc1c(C(C)(C)C)s/c(=N\C(=O)c2cccc(Cl)c2F)n1C [compound 129] | 7.1 | 203 to 205
Cc1c(C(C)(C)C)s/c(=N\C(=O)c2cc(F)ccc2Cl)n1C [compound 130] | 8.5 | 125 to 126
Cc1c(C(C)(C)C)s/c(=N\C(=O)c2cc(F)ccc2Br)n1C [compound 131] | 5.6 | 161 to 162
Cc1c(C(C)(C)C)s/c(=N\C(=O)c2cc(Br)ccc2F)n1C [compound 132] | 15.7 | 144 to 145

Compound | IC50 (human CB2 receptor) [nM] | melting point [°C]
Cc1c(C(C)(C)C)s/c(=N\C(=O)c2cc(Cl)ccc2Cl)n1C [compound 133] | 7.3 | 171 to 173
Cc1c(C(C)(C)C)s/c(=N\C(=O)c2c(F)ccc(F)c2F)n1C [compound 134] | 6.8 | 143 to 145
Cc1c(C(C)(C)C)s/c(=N\C(=O)c2cc(F)c(F)cc2Cl)n1C [compound 135] | 11.9 | 145 to 146
Cc1c(C(C)(C)C)s/c(=N\C(=O)c2cc(F)c(Cl)cc2Cl)n1C [compound 136] | 11.6 | 205 to 207
Cc1ccc(F)cc1C(=O)/N=c1\sc(C(C)(C)C)c(C)n1C [compound 138] | 12 | 145 to 146
Cc1c(Cl)cccc1C(=O)/N=c1\sc(C(C)(C)C)c(C)n1C [compound 139] | 7.4 | 161 to 162
Cc1c(Br)cccc1C(=O)/N=c1\sc(C(C)(C)C)c(C)n1C [compound 140] | 6.1 | 143 to 144
Cc1c(C(C)(C)C)s/c(=N\C(=O)c2cccc(C(F)(F)F)c2F)n1C [compound 141] | 13.9 | 176 to 178
Cc1c(C(C)(C)C)s/c(=N\C(=O)c2cc(F)ccc2C(F)(F)F)n1C [compound 143] | 7.4 | 83 to 85
Cc1ccc(F)c(C(=O)/N=c2\sc(C(C)(C)C)c(C)n2C)c1F [compound 144] | 4.3 | 140 to 142
COc1ccc(Cl)cc1C(=O)/N=c1\sc(C(C)(C)C)c(C)n1C [compound 146] | 6.6 | 177 to 179
COc1cc(Cl)ccc1C(=O)/N=c1\sc(C(C)(C)C)c(C)n1C [compound 147] | 9.6 | 117 to 119
Cc1c(C(C)(C)C)s/c(=N\C(=O)C(F)(F)C(F)(F)C(F)(F)F)n1C [compound 149] | 12.2 | 180 to 182
CCn1c(C)c(C(C)(C)C)s/c1=N\C(=O)c1ccccc1C(F)(F)F [compound 151] | 3.2 | 74 to 76
CCn1c(C)c(C(C)(C)C)s/c1=N\C(=O)c1ccccc1OC(F)(F)F [compound 153] | 17.8 | 104 to 105
CCn1c(C)c(C(C)(C)C)s/c1=N\C(=O)c1cc(Br)ccc1F [compound 154] | 5.9 | 105 to 106
CCn1c(C)c(C(C)(C)C)s/c1=N\C(=O)c1cc(F)ccc1Br [compound 155] | 4.3 | 115 to 116
CCn1c(C)c(C(C)(C)C)s/c1=N\C(=O)c1ccc(F)cc1Br [compound 156] | 11.4 | 99 to 100
CCn1c(C)c(C(C)(C)C)s/c1=N\C(=O)c1cc(I)ccc1F [compound 157] | 12.1 | 87 to 89
CCn1c(C)c(C(C)(C)C)s/c1=N\C(=O)c1cc(Cl)ccc1Cl [compound 158] | 7.1 | 127 to 128
CCn1c(C)c(C(C)(C)C)s/c1=N\C(=O)c1cc(F)c(F)cc1Cl [compound 159] | 8.4 | 107 to 108

Compound | IC50 (human CB2 receptor) [nM] | melting point [°C]
CCn1c(C)c(C(C)(C)C)s/c1=N\C(=O)c1cc(F)c(Cl)cc1Cl [compound 160] | 8.5 | 112 to 114
CCn1c(C)c(C(C)(C)C)s/c1=N\C(=O)c1cc(F)ccc1C [compound 161] | 9.7 | 108 to 109
CCn1c(C)c(C(C)(C)C)s/c1=N\C(=O)c1ccc(Cl)cc1C [compound 162] | 12 | 125 to 126
CCn1c(C)c(C(C)(C)C)s/c1=N\C(=O)c1ccc(C)cc1Br [compound 163] | 14.9 | 100 to 102
CCn1c(C)c(C(C)(C)C)s/c1=N\C(=O)c1cc(F)ccc1C(F)(F)F [compound 164] | 4.1 | 103 to 104
CCn1c(C)c(C(C)(C)C)s/c1=N\C(=O)c1cccc(C(F)(F)F)c1F [compound 165] | 4.3 | 97 to 99
CCn1c(C)c(C(C)(C)C)s/c1=N\C(=O)c1cc(Cl)ccc1OC [compound 167] | 4.6 | 108 to 109
CCn1c(C)c(C(C)(C)C)s/c1=N\C(=O)c1cnccc1C(F)(F)F [compound 170] | 13.8 | 110 to 112
CCn1c(C)c(C(C)(C)C)s/c1=N\C(=O)c1cc(C(F)(F)F)ccc1OC(F)F [compound 174] | 11.7 | 95 to 97
Cc1cccc(C(=O)/N=c2\sc(C(C)(C)C)c(C)n2CC2CC2)c1 [compound 179] | 17.8 | 132 to 134
Cc1c(C(C)(C)C)s/c(=N\C(=O)c2ccccc2F)n1CC1CC1 [compound 185] | 11 | 182 to 183
Cc1c(C(C)(C)C)s/c(=N\C(=O)c2cccc(I)c2)n1CC1CC1 [compound 192] | 13.2 | 114 to 115
COc1cccc(C(=O)/N=c2\sc(C(C)(C)C)c(C)n2CC2CC2)c1 [compound 194] | 19.1 | 108 to 109
Cc1c(C(C)(C)C)s/c(=N\C(=O)c2cccc(OC(F)(F)F)c2)n1CC1CC1 [compound 196] | 7.6 | 106 to 108
Cc1c(C(C)(C)C)s/c(=N\C(=O)c2cccc(OC(F)(F)C(F)F)c2)n1CC1CC1 [compound 198] | 2.7 | 109 to 111
CNc1ccccc1C(=O)/N=c1\sc(C(C)(C)C)c(C)n1CC1CC1 [compound 200] | 15.1 | 158 to 159
Cc1c(C(C)(C)C)s/c(=N\C(=O)c2cccc(N(C)C)c2)n1CC1CC1 [compound 201] | 19.1 | 128 to 130
Cc1c(C(C)(C)C)s/c(=N\C(=O)c2cccc([N+](=O)[O-])c2)n1CC1CC1 [compound 209] | 1.4 | 87 to 89
Cc1c(C(C)(C)C)s/c(=N\C(=O)c2ccc(C#N)cc2)n1CC1CC1 [compound 210] | 15.7 | 125 to 126
